Experimental data as given in patent US10865211B2 (ENANTA PHARMACEUTICALS, INC, priority 2018, dated 2020).
pEC50: −log10 of the molar value.

What was measured:
2.2.15 cells = assay: Antiviral activity in 2.2.15 cells: reduction of viral product accumulation (qPCR, HBsAg/HBeAg ELISA); assay type: cell-based, HBV; details: Hepatitis B virus, 120 h, day 5 post treatment, concentration reducing viral product accumulation in cell lysates or supernatants by 50% relative to no drug controls
Description: 2.2.15 cells are passaged upon attaining confluency in DMEM/F12 media in the presence of 10% FBS, Penn/Strep, and 250 ug/mL G418. Novel compounds are 5 fold serially diluted in DMSO and added to 96 well plates containing 35,000 cells/well at a 1:200 dilution so that the final concentration of DMSO is 0.5%. On day 5, post treatment cell lysates and supernatants are harvested for analysis.
Cells are lysed using Agilent Sidestep Lysis buffer, diluted 1:100 and quantified via quantitative real time PCR. Commercially available ELISA kits are used to quantitate the viral proteins HBsAg (Alpco) or HBeAg (US Biological) by following the manufacturer's recommended protocol after diluting samples to match the linear range of their respective assays. Irrespective of readout, compound concentrations that reduce viral product accumulation in the cell lysates or supernatants by 50% relative to no drug controls (EC50) are reported; EC50 ranges are as follows: A<0.1 μM; B 0.1-1 μM; C>1 μM.

[1] = Compound induced cellular toxicity in HepG2 cells (ATPlite); assay type: cell-based; details: human, three days, ATPlite 1 Step, concentration reducing total ATP levels by 50% relative to no drug controls
Description: At day 3, post seeding cells are treated with ATPlite 1 Step according to the manufacturer's instructions.

SMILES | pEC50 (2.2.15 cells) | CC50 at 3 days [1]
CCC1Cc2c(oc3ccccc23)-c2cc(=O)c(C(=O)O)cn21 (stereo not drawn) [Example 1, 6-ethyl-2-oxo-6,7-dihydro-2H-benzofuro[2,3-a]quinolizine-3-carboxylic acid] | 6.00 to 7.00 | > 25000 nM
O=C(O)c1cn2c(cc1=O)-c1oc3ccccc3c1CC2c1ccccc1 (stereo not drawn) [Example 2, 2-oxo-6-phenyl-6,7-dihydro-2H-benzofuro[2,3-a]quinolizine-3-carboxylic acid] | < 6.00 | > 25000 nM
CC(C)(C)[C@@H]1Cc2c(oc3ccccc23)-c2cc(=O)c(C(=O)O)cn21 [Example 3, (S)-6-(tert-butyl)-2-oxo-6,7-dihydro-2H-benzofuro[2,3-a]quinolizine-3-carboxylic acid] | > 7.00 | > 25000 nM
CC(C)(C)[C@@H]1Cc2c(oc3c(OC(F)F)cccc23)-c2cc(=O)c(C(=O)O)cn21 [Example 4, (S)-6-(tert-butyl)-11-(difluoromethoxy)-2-oxo-6,7-dihydro-2H-benzofuro[2,3-a]quinolizine-3-carboxylic acid] | > 7.00 | > 25000 nM
CC(C)(C)[C@@H]1Cc2c(oc3cc(-c4ccoc4)ccc23)-c2cc(=O)c(C(=O)O)cn21 [Example 5, (S)-6-(tert-butyl)-10-(furan-3-yl)-2-oxo-6,7-dihydro-2H-benzofuro[2,3-a]quinolizine-3-carboxylic acid] | > 7.00 | –
CC(C)(C)[C@@H]1Cc2c(oc3cc(OC(F)F)ccc23)-c2cc(=O)c(C(=O)O)cn21 [Example 6, (S)-6-(tert-butyl)-10-(difluoromethoxy)-2-oxo-6,7-dihydro-2H-benzofuro[2,3-a]quinolizine-3-carboxylic acid] | > 7.00 | 10000 to 25000 nM
CC(C)(C)[C@@H]1Cc2c(oc3cc(OC(F)F)ccc23)-c2cc(=O)c(-c3ncn[nH]3)cn21 [Example 7, (S)-6-(tert-butyl)-10-(difluoromethoxy)-3-(1H-1,2,4-triazol-5-yl)-6,7-dihydro-2H-benzofuro[2,3-a]quinolizin-2-one] | > 7.00 | > 25000 nM
CC(C)(C)[C@@H]1Cc2c(oc3c(OC(F)F)cccc23)-c2cc(=O)c(-c3ncn[nH]3)cn21 [Example 8, (S)-6-(tert-butyl)-11-(difluoromethoxy)-3-(1H-1,2,4-triazol-5-yl)-6,7-dihydro-2H-benzofuro[2,3-a]quinolizin-2-one] | > 7.00 | > 25000 nM
Cn1ccc(-c2ccc3c4c(oc3c2)-c2cc(=O)c(C(=O)O)cn2[C@H](C(C)(C)C)C4)n1 [Example 9, (S)-6-(tert-butyl)-10-(1-methyl-1H-pyrazol-3-yl)-2-oxo-6,7-dihydro-2H-benzofuro[2,3-a]quinolizine-3-carboxylic acid] | > 7.00 | –
Cn1cc(-c2ccc3c4c(oc3c2)-c2cc(=O)c(C(=O)O)cn2[C@H](C(C)(C)C)C4)cn1 [Example 10, (S)-6-(tert-butyl)-10-(1-methyl-1H-pyrazol-4-yl)-2-oxo-6,7-dihydro-2H-benzofuro[2,3-a]quinolizine-3-carboxylic acid] | > 7.00 | > 25000 nM
Cn1nccc1-c1ccc2c3c(oc2c1)-c1cc(=O)c(C(=O)O)cn1[C@H](C(C)(C)C)C3 [Example 11, (S)-6-(tert-butyl)-10-(1-methyl-1H-pyrazol-5-yl)-2-oxo-6,7-dihydro-2H-benzofuro[2,3-a]quinolizine-3-carboxylic acid] | > 7.00 | > 25000 nM
CC(C)(C)[C@@H]1Cc2c(oc3cc(C#N)ccc23)-c2cc(=O)c(C(=O)O)cn21 [Example 12, (S)-6-(tert-butyl)-10-cyano-2-oxo-6,7-dihydro-2H-benzofuro[2,3-a]quinolizine-3-carboxylic acid] | > 7.00 | > 25000 nM
CC(C)(C)[C@@H]1Cc2c(oc3cc(-c4cn[nH]c4)ccc23)-c2cc(=O)c(C(=O)O)cn21 [Example 13, (S)-6-(tert-butyl)-2-oxo-10-(1H-pyrazol-4-yl)-6,7-dihydro-2H-benzofuro[2,3-a]quinolizine-3-carboxylic acid] | > 7.00 | > 25000 nM
CC(C)(C)[C@@H]1Cc2c(oc3cc(-c4ccn[nH]4)ccc23)-c2cc(=O)c(C(=O)O)cn21 [Example 14, (S)-6-(tert-butyl)-2-oxo-10-(1H-pyrazol-5-yl)-6,7-dihydro-2H-benzofuro[2,3-a]quinolizine-3-carboxylic acid] | > 7.00 | > 25000 nM
CC(C)(C)[C@@H]1Cc2c(oc3cc(-c4ccco4)ccc23)-c2cc(=O)c(C(=O)O)cn21 [Example 15, (S)-6-(tert-butyl)-10-(furan-2-yl)-2-oxo-6,7-dihydro-2H-benzofuro[2,3-a]quinolizine-3-carboxylic acid] | > 7.00 | –
CC(C)(C)[C@@H]1Cc2c(oc3cc(-c4cccs4)ccc23)-c2cc(=O)c(C(=O)O)cn21 [Example 18, (S)-6-(tert-butyl)-2-oxo-10-(thiophen-2-yl)-6,7-dihydro-2H-benzofuro[2,3-a]quinolizine-3-carboxylic acid] | > 7.00 | –
CC(C)(C)[C@@H]1Cc2c(oc3cc(-c4cnsc4)ccc23)-c2cc(=O)c(C(=O)O)cn21 [Example 19, (S)-6-(tert-butyl)-10-(isothiazol-4-yl)-2-oxo-6,7-dihydro-2H-benzofuro[2,3-a]quinolizine-3-carboxylic acid] | > 7.00 | –
CC(C)(C)[C@@H]1Cc2c(oc3cc(-c4ccsc4)ccc23)-c2cc(=O)c(C(=O)O)cn21 [Example 20, (S)-6-(tert-butyl)-2-oxo-10-(thiophen-3-yl)-6,7-dihydro-2H-benzofuro[2,3-a]quinolizine-3-carboxylic acid] | > 7.00 | –
CC(C)(C)[C@@H]1Cc2c(oc3cc(-c4cscn4)ccc23)-c2cc(=O)c(C(=O)O)cn21 [Example 22, (S)-6-(tert-butyl)-2-oxo-10-(thiazol-4-yl)-6,7-dihydro-2H-benzofuro[2,3-a]quinolizine-3-carboxylic acid] | > 7.00 | –
CC(C)(C)[C@@H]1Cc2c(oc3c(N4CCCC4)cccc23)-c2cc(=O)c(C(=O)O)cn21 [Example 40, (S)-6-(tert-butyl)-2-oxo-11-(pyrrolidin-1-yl)-6,7-dihydro-2H-benzofuro[2,3-a]quinolizine-3-carboxylic acid] | > 7.00 | –
Cc1cccc2c3c(oc12)-c1cc(=O)c(C(=O)O)cn1[C@H](C(C)(C)C)C3 [Example 44, (S)-6-(tert-butyl)-11-methyl-2-oxo-6,7-dihydro-2H-benzofuro[2,3-a]quinolizine-3-carboxylic acid] | 6.00 to 7.00 | –
Cn1ccc(-c2cccc3c4c(oc23)-c2c(F)c(=O)c(C(=O)O)cn2[C@H](C(C)(C)C)C4)n1 [Example 56, (S)-6-(tert-butyl)-1-fluoro-11-(1-methyl-1H-pyrazol-3-yl)-2-oxo-6,7-dihydro-2H-benzofuro[2,3-a]quinolizine-3-carboxylic acid] | > 7.00 | –
CC(C)(C)[C@@H]1Cc2c(oc3c(N4CCC(F)(F)C4)cccc23)-c2c(F)c(=O)c(C(=O)O)cn21 [Example 60, (S)-6-(tert-butyl)-11-(3,3-difluoropyrrolidin-1-yl)-1-fluoro-2-oxo-6,7-dihydro-2H-benzofuro[2,3-a]quinolizine-3-carboxylic acid] | > 7.00 | –
CC(C)[C@@H]1Cc2c(oc3cc(-c4cccs4)ccc23)-c2cc(=O)c(C(=O)O)cn21 [Example 75, (S)-6-isopropyl-2-oxo-10-(thiophen-2-yl)-6,7-dihydro-2H-benzofuro[2,3-a]quinolizine-3-carboxylic acid] | > 7.00 | –
